# Data taken from patent publication US10881110B2, “Herbicidal compositions comprising isoxazolo[5,4-b]pyridines” (BASF SE, priority 2014, dated 2021).
# Legend:
# Test in all cases: greenhouse post-emergence herbicidal test
# [1] = test system: APESV; assay type: in vivo, Apera spica-venti; design: key to herbicidal activity against APESV found: rating on a scale from 0 to 100; settings: post emergence
# Experimental: (§1) The culture containers used were plastic pots containing medium loamy sand with approximately 4.6% of humus and 69.9% sand as substrate. The seeds of the test plants were sown separately for each species.
# (§2) For the post-emergence treatment, the test plants were grown to a plant height of from 1 to 15 cm, depending on the plant habit, and only then treated with the active compounds which had been suspended or emulsified in water. To this end, the test plants were either sown directly, and grown in the same containers, or they were first grown separately as seedlings and transplanted into the test containers a few days prior to treatment.
# (§3) Depending on the species, the plants were kept at 10-25° C. and 20-35° C., respectively.
# (§4) The test period extended over 1 to 3 weeks. During this time, the plants were tended and their response to the individual treatments was evaluated 20 days after treatment except mentioned otherwise.
# (§5) Evaluation was carried out using a scale from 0 to 100. 100 means no emergence of the plants, or complete destruction of at least the above-ground parts, and 0 means no damage or normal course of growth.
# (§6) The respective stated components A and B, and, if appropriate, C, were formulated as a 10% by weight strength emulsion concentrate and, with addition of the amount of solvent system, introduced into the spray liquor used for applying the active compound. In the examples, the solvent used was water.
# (§7) In the examples below, using the method of S. R. Colby (1967) “Calculating synergistic and antagonistic responses of herbicide combinations”, Weeds 15, p. 22 ff., the value E, which is expected if the activity of the individual active compounds is only additive, was calculated. E=X+Y−(X·Y/100)
# [2] = test system: POLCO; assay type: in vivo, Polygonum convolvulus; design: key to herbicidal activity against POLCO found: rating on a scale from 0 to 100; settings: post emergence
# Experimental: as §1, §2, §3, §4, §5, §6, §7
# [3] = test system: ERICA; assay type: in vivo, Conyza canadensis; settings: post emergence; applied alone at 12 g/ha a.i.
# Experimental: as §1, §2, §3, §4, §5, §6, §7
# [4] = test system: GALAP; assay type: in vivo, Galium aparine; settings: post emergence; applied alone at 12 g/ha a.i.
# Experimental: as §1, §2, §3, §4, §5, §6, §7
# [5] = test system: ABUTH; assay type: in vivo, Abutilon theophrast; design: key to herbicidal activity against ABUTH found: rating on a scale from 0 to 100; settings: post emergence
# Experimental: as §1, §2, §3, §4, §5, §6, §7
# [6] = test system: ALOMY; assay type: in vivo, Alopecurus myosuroides; design: key to herbicidal activity against ALOMY found: rating on a scale from 0 to 100; settings: post emergence
# Experimental: as §1, §2, §3, §4, §5, §6, §7
# [7] = test system: IPOHE; assay type: in vivo, Ipomoea hederacea; design: key to herbicidal activity against IPOHE found: rating on a scale from 0 to 100; settings: post emergence, g/ha a.i.: I.1 31.25
# Experimental: as §1, §2, §3, §4, §5, §6, §7
# [8] = test system: MATCH; assay type: in vivo, Matricaria recutita; design: key to herbicidal activity against MATCH found: rating on a scale from 0 to 100; settings: post emergence, B.24 2
# Experimental: as §1, §2, §3, §4, §5, §6, §7
# [9] = test system: KCHSC; assay type: in vivo, Kochia scoparia; design: key to herbicidal activity against KCHSC found: rating on a scale from 0 to 100; settings: post emergence, g/ha a.i.: I.1 31.25
# Experimental: as §1, §2, §3, §4, §5, §6, §7
# [10] = test system: PAPRH; assay type: in vivo, Papaver rhoeas; settings: 2 g/ha a.i.
# Experimental: as §1, §2, §3, §4, §5, §6, §7
# [11] = test system: GERDI; assay type: in vivo, Geranium dissectum; design: key to herbicidal activity against GERDI found: rating on a scale from 0 to 100; settings: post emergence; application rate a.i.: I.1 62.5 g/ha, B.30 (imazamox) 3.75 g/ha, alone or as mixture (composition 1.030)
# Experimental: as §1, §2, §3, §4, §5, §6, §7
# [12] = test system: VIOAR; assay type: in vivo, Viola arvensis; design: key to herbicidal activity against VIOAR found / herbicidal activity against VIOLA found: rating on a scale from 0 to 100; settings: post emergence; application rate a.i.: I.1 62.5 g/ha, B.30 (imazamox) 3.75 g/ha, alone or as mixture (composition 1.030)
# Experimental: as §1, §2, §3, §4, §5, §6, §7
# [13] = test system: CONAR; assay type: in vivo, Convolvulus arvensis; design: key: rating on a scale from 0 to 100; settings: application rate a.i.: I.1 62.5 g/ha, B.30 (imazamox) 3.75 g/ha, alone or as mixture (composition 1.030)
# Experimental: as §1, §2, §3, §4, §5, §6, §7
# [14] = g/ha a.i.: I.1 62.5, B.20 4, mixture 62.5+4
compound,measurement,setting,value
"CCSC(C)CC1CC(=O)C(/C(CC)=N/OC/C=C/Cl)=C(O)C1 (stereo not drawn) [B.1, clethodim]",herbicidal activity against APESV found,[1]; applied alone at 6 g/ha a.i.,75
same,herbicidal activity against POLCO found,[2]; applied alone at 6 g/ha a.i.,0
same,herbicidal activity against ERICA found,[3],0
same,herbicidal activity against GALAP found,[4],0
same,herbicidal activity against ABUTH found,[5]; applied alone at 6 g/ha a.i.,0
same,herbicidal activity against ABUTH found,[5]; applied alone at 12 g/ha a.i.,25
"CCCC(=NOCC(C)Oc1ccc(Cl)cc1)C1=C(O)CC(C2CCCSC2)CC1=O (stereo not drawn) [B.9, profoxydim]",herbicidal activity against APESV found,[1]; applied alone at 6 g/ha a.i.,15
same,herbicidal activity against APESV found,[1]; applied alone at 12 g/ha a.i.,55
same,herbicidal activity against POLCO found,[2]; applied alone at 12 g/ha a.i.,0
same,herbicidal activity against ALOMY found,[6]; applied alone at 12 g/ha a.i.,25
same,herbicidal activity against ABUTH found,[5]; applied alone at 6 g/ha a.i.,0
same,herbicidal activity against ABUTH found,[5]; applied alone at 12 g/ha a.i.,40
"COc1cc(OC)nc(Oc2cccc(Oc3nc(OC)cc(OC)n3)c2C(=O)O)n1 [B.20, bispyribac-sodium]",herbicidal activity against APESV found,[1]; [14],60
same,herbicidal activity against ALOMY found,[6]; [14],55
same,herbicidal activity against ALOMY found,"[6]; g/ha a.i.: I.1 125, B.20 2, mixture 125+2",30
same,herbicidal activity against ALOMY found,"[6]; g/ha a.i.: I.1 125, B.20 4, mixture 125+4",55
same,herbicidal activity against IPOHE found,"[7]; B.20 2, mixture 31.25+2",30
same,herbicidal activity against ABUTH found,"[5]; g/ha a.i.: I.1 31.25, B.20 2, mixture 31.25+2",35
same,herbicidal activity against ABUTH found,"[5]; g/ha a.i.: I.1 31.25, B.20 4, mixture 31.25+4",65
"COc1cc(OC)nc(NC(=O)NS(=O)(=O)Nc2ccccc2C(=O)C2CC2)n1 [B.24, cyclosulfamuron]",herbicidal activity against MATCH found,"[8]; g/ha a.i.: I.1 31.25, mixture 31.25+2",65
same,herbicidal activity against MATCH found,"[8]; g/ha a.i.: I.1 125, mixture 125+2",65
same,herbicidal activity against APESV found,"[1]; g/ha a.i.: I.1 31.25, B.24 1, mixture 31.25+1",0
same,herbicidal activity against ALOMY found,"[6]; g/ha a.i.: I.1 125, B.24 1, mixture 125+1",25
same,herbicidal activity against ALOMY found,"[6]; g/ha a.i.: I.1 125, B.24 2, mixture 125+2",35
same,herbicidal activity against IPOHE found,"[7]; B.24 1, mixture 31.25+1",75
same,herbicidal activity against KCHSC found,"[9]; B.24 1, mixture 31.25+1",45
same,herbicidal activity against KCHSC found,"[9]; B.24 2, mixture 31.25+2",45
same,herbicidal activity against ABUTH found,"[5]; g/ha a.i.: I.1 31.25, B.24 2, mixture 31.25+2",85
"COc1ncc(F)c2nc(S(=O)(=O)Nc3c(F)cccc3F)nn12 [B.26, florasulam]",herbicidal activity against POLCO found,[2]; 2 g/ha a.i.,85
same,herbicidal activity against PAPRH found,[10],98
"COCc1cnc(C2=NC(C)(C(C)C)C(=O)N2)c(C(=O)O)c1 (stereo not drawn) [B.30, imazamox]",herbicidal activity against GERDI found,[11],90
same,herbicidal activity against VIOAR found,[12],45
same,herbicidal activity against CONAR found,[13],85
